Drawing on ChEMBL document CHEMBL1926563, “Synthesis, antimicrobial, antimycobacterial and structure-activity relationship of substituted pyrazolo-, isoxazolo-, pyrimido- and mercaptopyrimidocyclohepta[b]indoles” (2012), this text covers MIC and zone of inhibition for 6 compounds.

Converted amounts (≈) assume the structure as drawn.

Type in all cases: functional
For experiment [1], the system named is Klebsiella pneumoniae. Nature of the experiment: Antibacterial activity against Klebsiella pneumoniae NCIM 2957 after 24 hrs by disk diffusion method. The note with it: NCIM 2957, 24 h. A general note: Agar diffusion results depend on both activity and mobility in agar.
Experiment [2] concerns Proteus vulgaris. Nature of the experiment: Antibacterial activity against Proteus vulgaris NCIM 2027 after 24 hrs by disk diffusion method. Particulars: NCIM 2027, 24 h.
Experiment [3] deals with Fusarium solani. Nature of the experiment: Antifungal activity against Fusarium solani NCIM 1330 after 48 hrs by disk diffusion method. The note with it: NCIM 1330, 48 h.
Experiment [4] deals with Curvularia lunata. Briefly: Antifungal activity against Curvularia lunata NCIM 716 after 48 hrs by disk diffusion method. Particulars: NCIM 716, 48 h.
In experiment [5] the test system is Aspergillus niger. Briefly: Antifungal activity against Aspergillus niger NCIM 596 after 48 hrs by disk diffusion method. Particulars: NCIM 596, 48 h.
The test system of experiment [6] is Mycobacterium tuberculosis. Briefly: Antimycobacterial activity against Mycobacterium tuberculosis H37Rv after 7 days by resazurin microtiter plate assay. The note with it: 168 h. In general terms: The colour change of resazurin is a common sign of viable cells or microbes.
Experiment [7] concerns Staphylococcus aureus. Briefly: Antibacterial activity against Staphylococcus aureus NCIM 5021 assessed as zone of inhibition at 100 ug/disc after 24 hrs by disk diffusion method. The note with it: NCIM 5021, 24 h, read-out: DIZ.
Experiment [8] has as its system Staphylococcus aureus. Briefly: Antibacterial activity against Staphylococcus aureus NCIM 5021 assessed as zone of inhibition at 200 ug/disc after 24 hrs by disk diffusion method. Particulars: NCIM 5021, 24 h, read-out: DIZ.
Experiment [9] concerns Bacillus subtilis. Nature of the experiment: Antibacterial activity against Bacillus subtilis NCIM 2063 assessed as zone of inhibition at 100 ug/disc after 24 hrs by disk diffusion method. The note with it: NCIM 2063, 24 h, read-out: DIZ.
In experiment [10] the test system is Bacillus subtilis. Briefly: Antibacterial activity against Bacillus subtilis NCIM 2063 assessed as zone of inhibition at 200 ug/disc after 24 hrs by disk diffusion method. Particulars: NCIM 2063, 24 h, read-out: DIZ.
The subject of experiment [11] is Klebsiella pneumoniae. Briefly: Antibacterial activity against Klebsiella pneumoniae NCIM 2957 assessed as zone of inhibition at 100 ug/disc after 24 hrs by disk diffusion method. Particulars: NCIM 2957, 24 h, read-out: DIZ.
For experiment [12], the system named is Klebsiella pneumoniae. Briefly: Antibacterial activity against Klebsiella pneumoniae NCIM 2957 assessed as zone of inhibition at 200 ug/disc after 24 hrs by disk diffusion method. Particulars: NCIM 2957, 24 h, read-out: DIZ.
For experiment [13], the system named is Proteus vulgaris. Briefly: Antibacterial activity against Proteus vulgaris NCIM 2027 assessed as zone of inhibition at 100 ug/disc after 24 hrs by disk diffusion method. Particulars: NCIM 2027, 24 h, read-out: DIZ.
The test system of experiment [14] is Proteus vulgaris. Nature of the experiment: Antibacterial activity against Proteus vulgaris NCIM 2027 assessed as zone of inhibition at 200 ug/disc after 24 hrs by disk diffusion method. Particulars: NCIM 2027, 24 h, read-out: DIZ.
The test system of experiment [15] is Fusarium solani. Nature of the experiment: Antifungal activity against Fusarium solani NCIM 1330 assessed as zone of inhibition at 100 ug/disc after 48 hrs by disk diffusion method. Particulars: NCIM 1330, 48 h, read-out: DIZ.
Experiment [16] concerns Fusarium solani. Nature of the experiment: Antifungal activity against Fusarium solani NCIM 1330 assessed as zone of inhibition at 200 ug/disc after 48 hrs by disk diffusion method. The note with it: NCIM 1330, 48 h, read-out: DIZ.
Experiment [17] relates to Curvularia lunata. Briefly: Antifungal activity against Curvularia lunata NCIM 716 assessed as zone of inhibition at 100 ug/disc after 48 hrs by disk diffusion method. Particulars: NCIM 716, 48 h, read-out: DIZ.
The subject of experiment [18] is Curvularia lunata. Nature of the experiment: Antifungal activity against Curvularia lunata NCIM 716 assessed as zone of inhibition at 200 ug/disc after 48 hrs by disk diffusion method. The note with it: NCIM 716, 48 h, read-out: DIZ.
The test system of experiment [19] is Aspergillus niger. Nature of the experiment: Antifungal activity against Aspergillus niger NCIM 596 assessed as zone of inhibition at 100 ug/disc after 48 hrs by disk diffusion method. The note with it: NCIM 596, 48 h, read-out: DIZ.
The test system of experiment [20] is Aspergillus niger. Nature of the experiment: Antifungal activity against Aspergillus niger NCIM 596 assessed as zone of inhibition at 200 ug/disc after 48 hrs by disk diffusion method. Particulars: NCIM 596, 48 h, read-out: DIZ.
Experiment [21] deals with Staphylococcus aureus. Briefly: Antibacterial activity against Staphylococcus aureus NCIM 5021 after 24 hrs by disk diffusion method. Particulars: NCIM 5021, 24 h.
The subject of experiment [22] is Bacillus subtilis. Nature of the experiment: Antibacterial activity against Bacillus subtilis NCIM 2063 after 24 hrs by disk diffusion method. The note with it: NCIM 2063, 24 h.

What is called MIC is the lowest concentration that inhibits growth of the organism. Higher therefore signals weaker potency.

On to `Clc1ccc2[nH]c3c(c2c1)CCCc1conc1-3`, for which the MIC is 100 µg/mL (≈ 387 µM) against Klebsiella pneumoniae [1]; 200 µg/mL (≈ 773 µM) against Proteus vulgaris [2]; 100 µg/mL (≈ 387 µM) against Fusarium solani [3]; 100 µg/mL (≈ 387 µM) in the experiment on Curvularia lunata [4]; 100 µg/mL (≈ 387 µM) in the experiment on Aspergillus niger [5]; 3.12 µg/mL (≈ 12.1 µM) in experiment [6]. Moreover, the MIC against Staphylococcus aureus [21] and against Bacillus subtilis [22] was 50 µg/mL (≈ 193 µM) each time. For the same compound, the zone of inhibition at 100 µg/disc with Staphylococcus aureus [7] is 32 mm; with Bacillus subtilis [9], 31 mm; in the experiment with Klebsiella pneumoniae [11], 26 mm; with Proteus vulgaris [13], 28 mm; in the experiment on Fusarium solani [15], 33 mm; in the experiment on Curvularia lunata [17], 31 mm. For the same compound, in the experiment with Aspergillus niger [19], the zone of inhibition at 100 µg/disc was determined as 29 mm. The zone of inhibition at 200 µg/disc came out at 33 mm with Staphylococcus aureus [8]; 34 mm with Bacillus subtilis [10]; 29 mm with Klebsiella pneumoniae [12]; 30 mm with Proteus vulgaris [14]; 35 mm in the experiment on Fusarium solani [16]; 33 mm in the experiment with Curvularia lunata [18]. For the same compound, the zone of inhibition at 200 µg/disc in the experiment with Aspergillus niger [20] amounted to 32 mm.

Consider `Sc1ncc2c(n1)-c1[nH]c3ccc(Cl)cc3c1CCC2`, for which the MIC came to 100 µg/mL (≈ 331 µM) in the experiment on Klebsiella pneumoniae [1]; 100 µg/mL (≈ 331 µM) against Proteus vulgaris [2]; 100 µg/mL (≈ 331 µM) with Fusarium solani [3]; 50 µg/mL (≈ 166 µM) against Curvularia lunata [4]; 50 µg/mL (≈ 166 µM) against Aspergillus niger [5]; 25 µg/mL (≈ 82.8 µM) in [6]. Moreover, the MIC with Staphylococcus aureus [21] and against Bacillus subtilis [22] was 50 µg/mL (≈ 166 µM) each time. Also, the zone of inhibition at 100 µg/disc with Staphylococcus aureus [7] was 16 mm; in the experiment on Bacillus subtilis [9] it was 15 mm; in the experiment on Klebsiella pneumoniae [11] it was 12 mm; with Proteus vulgaris [13], 11 mm; in the experiment on Fusarium solani [15], 16 mm; with Curvularia lunata [17], 17 mm. Also, the zone of inhibition at 100 µg/disc in the experiment with Aspergillus niger [19] was 15 mm. In addition, the zone of inhibition at 200 µg/disc stood at 18 mm in the experiment on Staphylococcus aureus [8]; 17 mm in the experiment on Bacillus subtilis [10]; 14 mm in the experiment on Klebsiella pneumoniae [12]; 13 mm with Proteus vulgaris [14]; 19 mm in the experiment with Fusarium solani [16]; 21 mm in the experiment with Curvularia lunata [18]. Also, the zone of inhibition at 200 µg/disc with Aspergillus niger [20] stood at 17 mm.

For `Oc1ncc2c(n1)-c1[nH]c3ccc(Cl)cc3c1CCC2`, the minimum inhibitory concentration (MIC) turned out to be 100 µg/mL (≈ 350 µM) against Klebsiella pneumoniae [1]; 100 µg/mL (≈ 350 µM) in the experiment with Proteus vulgaris [2]; 100 µg/mL (≈ 350 µM) in the experiment on Fusarium solani [3]; 50 µg/mL (≈ 175 µM) against Curvularia lunata [4]; 50 µg/mL (≈ 175 µM) against Aspergillus niger [5]; 3.12 µg/mL (≈ 10.9 µM) in [6]. In addition, the MIC against Staphylococcus aureus [21] and against Bacillus subtilis [22] was 50 µg/mL (≈ 175 µM) in each case. For the same compound, the zone of inhibition at 100 µg/disc with Staphylococcus aureus [7] was found to be 26 mm; in the experiment on Bacillus subtilis [9] it was 25 mm; in the experiment on Klebsiella pneumoniae [11] it was 22 mm; in the experiment with Proteus vulgaris [13], 22 mm; in the experiment on Fusarium solani [15], 17 mm; in the experiment with Curvularia lunata [17], 19 mm. In addition, the zone of inhibition at 100 µg/disc with Aspergillus niger [19] turned out to be 16 mm. The zone of inhibition at 200 µg/disc in the experiment with Staphylococcus aureus [8] is 27 mm; with Bacillus subtilis [10] it was 28 mm; in the experiment with Klebsiella pneumoniae [12], 25 mm; in the experiment on Proteus vulgaris [14], 20 mm; with Fusarium solani [16], 20 mm; with Curvularia lunata [18], 23 mm. In addition, in the experiment with Aspergillus niger [20], the zone of inhibition at 200 µg/disc was 19 mm.

In the case of `O=C(N[C@H](CO)[C@H](O)c1ccc([N+](=O)[O-])cc1)C(Cl)Cl` [CHLORAMPHENICOL], the MIC was 12.5 µg/mL (≈ 38.7 µM) in the experiment with Klebsiella pneumoniae [1], 12.5 µg/mL (≈ 38.7 µM) in the experiment with Proteus vulgaris [2], 6.25 µg/mL (≈ 19.3 µM) in the experiment with Staphylococcus aureus [21] and 6.25 µg/mL (≈ 19.3 µM) with Bacillus subtilis [22]. Besides, the zone of inhibition at 100 µg/disc in the experiment with Staphylococcus aureus [7] is 35 mm; in the experiment on Bacillus subtilis [9], 38 mm; in the experiment on Klebsiella pneumoniae [11], 37 mm; with Proteus vulgaris [13], 42 mm. Besides, the zone of inhibition at 200 µg/disc with Staphylococcus aureus [8] stood at 41 mm; with Bacillus subtilis [10], 43 mm; with Klebsiella pneumoniae [12] it was 42 mm; with Proteus vulgaris [14] it was 44 mm.

As for `Clc1ccc2[nH]c3c(c2c1)CCCc1c[nH]nc1-3`, the MIC in the experiment on Klebsiella pneumoniae [1] worked out at 100 µg/mL (≈ 388 µM); in the experiment on Proteus vulgaris [2], 100 µg/mL (≈ 388 µM); in the experiment with Fusarium solani [3], 200 µg/mL (≈ 776 µM); against Curvularia lunata [4], 200 µg/mL (≈ 776 µM); in the experiment on Aspergillus niger [5] it was 200 µg/mL (≈ 776 µM); in experiment [6] it was 12.5 µg/mL (≈ 48.5 µM). Also, the MIC against Staphylococcus aureus [21] and in the experiment with Bacillus subtilis [22] was 100 µg/mL (≈ 388 µM) in each case. Further, the zone of inhibition at 100 µg/disc in the experiment with Staphylococcus aureus [7] came out at 34 mm; with Bacillus subtilis [9], 35 mm; in the experiment with Klebsiella pneumoniae [11], 30 mm; with Proteus vulgaris [13], 31 mm; with Fusarium solani [15], 35 mm; in the experiment on Curvularia lunata [17], 34 mm. The zone of inhibition at 100 µg/disc with Aspergillus niger [19] was determined as 32 mm. Besides, the zone of inhibition at 200 µg/disc in the experiment on Staphylococcus aureus [8] amounted to 36 mm; in the experiment with Bacillus subtilis [10], 37 mm; in the experiment with Klebsiella pneumoniae [12], 32 mm; in the experiment on Proteus vulgaris [14], 33 mm; with Fusarium solani [16] it was 39 mm; with Curvularia lunata [18] it was 38 mm. The zone of inhibition at 200 µg/disc with Aspergillus niger [20] was 35 mm.

Consider `Clc1ccc2[nH]c3c(c2c1)CCCc1cnn(-c2ccccc2)c1-3`, for which the MIC amounted to 50 µg/mL (≈ 150 µM) in the experiment with Klebsiella pneumoniae [1]; 50 µg/mL (≈ 150 µM) in the experiment with Proteus vulgaris [2]; 200 µg/mL (≈ 599 µM) against Fusarium solani [3]; 100 µg/mL (≈ 300 µM) against Curvularia lunata [4]; 100 µg/mL (≈ 300 µM) in the experiment on Aspergillus niger [5]; 3.12 µg/mL (≈ 9.35 µM) in experiment [6]. Moreover, the MIC against Staphylococcus aureus [21] and against Bacillus subtilis [22] was 25 µg/mL (≈ 74.9 µM) throughout. The zone of inhibition at 100 µg/disc was 32 mm in the experiment on Staphylococcus aureus [7]; 33 mm with Bacillus subtilis [9]; 28 mm in the experiment with Klebsiella pneumoniae [11]; 29 mm in the experiment on Proteus vulgaris [13]; 32 mm in the experiment with Fusarium solani [15]; 31 mm in the experiment with Curvularia lunata [17]. The zone of inhibition at 100 µg/disc in the experiment on Aspergillus niger [19] was determined as 30 mm. Further, the zone of inhibition at 200 µg/disc with Staphylococcus aureus [8] was determined as 34 mm; with Bacillus subtilis [10] it was 32 mm; in the experiment with Klebsiella pneumoniae [12], 30 mm; with Proteus vulgaris [14] it was 31 mm; with Fusarium solani [16], 39 mm; in the experiment with Curvularia lunata [18], 38 mm. The zone of inhibition at 200 µg/disc in the experiment on Aspergillus niger [20] amounted to 35 mm.
